In the OligoGym collection:
Oligonucleotides are given in HELM: sugar(base)linkage, 5' to 3'; d 2'-deoxyribose, r ribose, m 2'-O-methylribose, p phosphate. ss, as = sense and antisense strand

What follows are substances tested against UBE2K (assay: reporter assay of Huesken 2005). Conditions: siRNA.
Also: test concentration or dose not given here.

Substance	normalised inhibition (eCFP-eYFP dual reporter)
RNA1{r(G)p.r(U)p.r(U)p.r(U)p.r(G)p.r(G)p.r(A)p.r(U)p.r(A)p.r(U)p.r(C)p.r(C)p.r(U)p.r(G)p.r(A)p.r(A)p.r(A)p.r(G)p.r(A)p.d(T)p.d(T)}|RNA2{r(U)p.r(C)p.r(U)p.r(U)p.r(U)p.r(C)p.r(A)p.r(G)p.r(G)p.r(A)p.r(U)p.r(A)p.r(U)p.r(C)p.r(C)p.r(A)p.r(A)p.r(A)p.r(C)p.d(A)p.d(A)}$$$RNA1{StrandType:ss}|RNA2{StrandType:as}$	87.1%
RNA1{r(U)p.r(A)p.r(C)p.r(A)p.r(A)p.r(A)p.r(C)p.r(A)p.r(A)p.r(A)p.r(A)p.r(U)p.r(C)p.r(C)p.r(C)p.r(G)p.r(A)p.r(A)p.r(A)p.d(T)p.d(T)}|RNA2{r(U)p.r(U)p.r(U)p.r(C)p.r(G)p.r(G)p.r(G)p.r(A)p.r(U)p.r(U)p.r(U)p.r(U)p.r(G)p.r(U)p.r(U)p.r(U)p.r(G)p.r(U)p.r(A)p.d(C)p.d(T)}$$$RNA1{StrandType:ss}|RNA2{StrandType:as}$	66.1%
RNA1{r(U)p.r(A)p.r(G)p.r(A)p.r(U)p.r(C)p.r(U)p.r(U)p.r(G)p.r(U)p.r(A)p.r(G)p.r(A)p.r(U)p.r(G)p.r(A)p.r(G)p.r(A)p.r(A)p.d(T)p.d(T)}|RNA2{r(U)p.r(U)p.r(C)p.r(U)p.r(C)p.r(A)p.r(U)p.r(C)p.r(U)p.r(A)p.r(C)p.r(A)p.r(A)p.r(G)p.r(A)p.r(U)p.r(C)p.r(U)p.r(A)p.d(C)p.d(T)}$$$RNA1{StrandType:ss}|RNA2{StrandType:as}$	85.7%
RNA1{r(U)p.r(A)p.r(G)p.r(U)p.r(A)p.r(G)p.r(C)p.r(A)p.r(A)p.r(A)p.r(U)p.r(C)p.r(A)p.r(G)p.r(U)p.r(A)p.r(C)p.r(A)p.r(A)p.d(T)p.d(T)}|RNA2{r(U)p.r(U)p.r(G)p.r(U)p.r(A)p.r(C)p.r(U)p.r(G)p.r(A)p.r(U)p.r(U)p.r(U)p.r(G)p.r(C)p.r(U)p.r(A)p.r(C)p.r(U)p.r(A)p.d(C)p.d(A)}$$$RNA1{StrandType:ss}|RNA2{StrandType:as}$	87.9%
RNA1{r(U)p.r(A)p.r(U)p.r(U)p.r(G)p.r(U)p.r(C)p.r(A)p.r(U)p.r(U)p.r(G)p.r(C)p.r(A)p.r(A)p.r(G)p.r(C)p.r(A)p.r(C)p.r(U)p.d(T)p.d(T)}|RNA2{r(A)p.r(G)p.r(U)p.r(G)p.r(C)p.r(U)p.r(U)p.r(G)p.r(C)p.r(A)p.r(A)p.r(U)p.r(G)p.r(A)p.r(C)p.r(A)p.r(A)p.r(U)p.r(A)p.d(A)p.d(T)}$$$RNA1{StrandType:ss}|RNA2{StrandType:as}$	89.2%
RNA1{r(U)p.r(C)p.r(C)p.r(A)p.r(G)p.r(A)p.r(C)p.r(A)p.r(C)p.r(A)p.r(C)p.r(C)p.r(A)p.r(U)p.r(A)p.r(U)p.r(G)p.r(A)p.r(A)p.d(T)p.d(T)}|RNA2{r(U)p.r(U)p.r(C)p.r(A)p.r(U)p.r(A)p.r(U)p.r(G)p.r(G)p.r(U)p.r(G)p.r(U)p.r(G)p.r(U)p.r(C)p.r(U)p.r(G)p.r(G)p.r(A)p.d(G)p.d(G)}$$$RNA1{StrandType:ss}|RNA2{StrandType:as}$	73.9%
RNA1{r(U)p.r(C)p.r(C)p.r(G)p.r(G)p.r(U)p.r(U)p.r(U)p.r(A)p.r(U)p.r(C)p.r(A)p.r(C)p.r(U)p.r(A)p.r(A)p.r(A)p.r(A)p.r(U)p.d(T)p.d(T)}|RNA2{r(A)p.r(U)p.r(U)p.r(U)p.r(U)p.r(A)p.r(G)p.r(U)p.r(G)p.r(A)p.r(U)p.r(A)p.r(A)p.r(A)p.r(C)p.r(C)p.r(G)p.r(G)p.r(A)p.d(C)p.d(C)}$$$RNA1{StrandType:ss}|RNA2{StrandType:as}$	73%
RNA1{r(U)p.r(C)p.r(U)p.r(U)p.r(G)p.r(U)p.r(A)p.r(G)p.r(A)p.r(U)p.r(G)p.r(A)p.r(G)p.r(A)p.r(A)p.r(U)p.r(U)p.r(U)p.r(U)p.d(T)p.d(T)}|RNA2{r(A)p.r(A)p.r(A)p.r(A)p.r(U)p.r(U)p.r(C)p.r(U)p.r(C)p.r(A)p.r(U)p.r(C)p.r(U)p.r(A)p.r(C)p.r(A)p.r(A)p.r(G)p.r(A)p.d(T)p.d(C)}$$$RNA1{StrandType:ss}|RNA2{StrandType:as}$	84.4%
RNA1{r(U)p.r(G)p.r(A)p.r(A)p.r(A)p.r(G)p.r(A)p.r(U)p.r(C)p.r(A)p.r(A)p.r(U)p.r(G)p.r(G)p.r(G)p.r(C)p.r(A)p.r(G)p.r(C)p.d(T)p.d(T)}|RNA2{r(G)p.r(C)p.r(U)p.r(G)p.r(C)p.r(C)p.r(C)p.r(A)p.r(U)p.r(U)p.r(G)p.r(A)p.r(U)p.r(C)p.r(U)p.r(U)p.r(U)p.r(C)p.r(A)p.d(G)p.d(G)}$$$RNA1{StrandType:ss}|RNA2{StrandType:as}$	57.3%
RNA1{r(U)p.r(G)p.r(A)p.r(A)p.r(G)p.r(G)p.r(A)p.r(G)p.r(G)p.r(A)p.r(A)p.r(G)p.r(A)p.r(U)p.r(A)p.r(C)p.r(C)p.r(A)p.r(A)p.d(T)p.d(T)}|RNA2{r(U)p.r(U)p.r(G)p.r(G)p.r(U)p.r(A)p.r(U)p.r(C)p.r(U)p.r(U)p.r(C)p.r(C)p.r(U)p.r(C)p.r(C)p.r(U)p.r(U)p.r(C)p.r(A)p.d(T)p.d(A)}$$$RNA1{StrandType:ss}|RNA2{StrandType:as}$	82.7%
RNA1{r(U)p.r(G)p.r(G)p.r(C)p.r(A)p.r(U)p.r(C)p.r(C)p.r(U)p.r(A)p.r(A)p.r(U)p.r(A)p.r(U)p.r(U)p.r(A)p.r(G)p.r(U)p.r(U)p.d(T)p.d(T)}|RNA2{r(A)p.r(A)p.r(C)p.r(U)p.r(A)p.r(A)p.r(U)p.r(A)p.r(U)p.r(U)p.r(A)p.r(G)p.r(G)p.r(A)p.r(U)p.r(G)p.r(C)p.r(C)p.r(A)p.d(T)p.d(A)}$$$RNA1{StrandType:ss}|RNA2{StrandType:as}$	61.6%
RNA1{r(U)p.r(G)p.r(G)p.r(G)p.r(C)p.r(A)p.r(G)p.r(C)p.r(U)p.r(G)p.r(C)p.r(A)p.r(A)p.r(U)p.r(G)p.r(A)p.r(C)p.r(U)p.r(C)p.d(T)p.d(T)}|RNA2{r(G)p.r(A)p.r(G)p.r(U)p.r(C)p.r(A)p.r(U)p.r(U)p.r(G)p.r(C)p.r(A)p.r(G)p.r(C)p.r(U)p.r(G)p.r(C)p.r(C)p.r(C)p.r(A)p.d(T)p.d(T)}$$$RNA1{StrandType:ss}|RNA2{StrandType:as}$	44.2%
RNA1{r(U)p.r(G)p.r(U)p.r(A)p.r(G)p.r(A)p.r(U)p.r(G)p.r(A)p.r(G)p.r(A)p.r(A)p.r(U)p.r(U)p.r(U)p.r(U)p.r(A)p.r(C)p.r(A)p.d(T)p.d(T)}|RNA2{r(U)p.r(G)p.r(U)p.r(A)p.r(A)p.r(A)p.r(A)p.r(U)p.r(U)p.r(C)p.r(U)p.r(C)p.r(A)p.r(U)p.r(C)p.r(U)p.r(A)p.r(C)p.r(A)p.d(A)p.d(G)}$$$RNA1{StrandType:ss}|RNA2{StrandType:as}$	89.5%
RNA1{r(U)p.r(G)p.r(U)p.r(U)p.r(U)p.r(G)p.r(G)p.r(A)p.r(U)p.r(A)p.r(U)p.r(C)p.r(C)p.r(U)p.r(G)p.r(A)p.r(A)p.r(A)p.r(G)p.d(T)p.d(T)}|RNA2{r(C)p.r(U)p.r(U)p.r(U)p.r(C)p.r(A)p.r(G)p.r(G)p.r(A)p.r(U)p.r(A)p.r(U)p.r(C)p.r(C)p.r(A)p.r(A)p.r(A)p.r(C)p.r(A)p.d(A)p.d(A)}$$$RNA1{StrandType:ss}|RNA2{StrandType:as}$	58.7%
RNA1{r(U)p.r(U)p.r(C)p.r(C)p.r(G)p.r(U)p.r(C)p.r(A)p.r(C)p.r(A)p.r(G)p.r(G)p.r(G)p.r(G)p.r(C)p.r(U)p.r(A)p.r(U)p.r(U)p.d(T)p.d(T)}|RNA2{r(A)p.r(A)p.r(U)p.r(A)p.r(G)p.r(C)p.r(C)p.r(C)p.r(C)p.r(U)p.r(G)p.r(U)p.r(G)p.r(A)p.r(C)p.r(G)p.r(G)p.r(A)p.r(A)p.d(C)p.d(T)}$$$RNA1{StrandType:ss}|RNA2{StrandType:as}$	55.5%
RNA1{r(U)p.r(U)p.r(G)p.r(U)p.r(A)p.r(G)p.r(A)p.r(U)p.r(G)p.r(A)p.r(G)p.r(A)p.r(A)p.r(U)p.r(U)p.r(U)p.r(U)p.r(A)p.r(C)p.d(T)p.d(T)}|RNA2{r(G)p.r(U)p.r(A)p.r(A)p.r(A)p.r(A)p.r(U)p.r(U)p.r(C)p.r(U)p.r(C)p.r(A)p.r(U)p.r(C)p.r(U)p.r(A)p.r(C)p.r(A)p.r(A)p.d(G)p.d(A)}$$$RNA1{StrandType:ss}|RNA2{StrandType:as}$	55.1%
RNA1{r(U)p.r(U)p.r(U)p.r(G)p.r(U)p.r(U)p.r(U)p.r(G)p.r(G)p.r(A)p.r(U)p.r(A)p.r(U)p.r(C)p.r(C)p.r(U)p.r(G)p.r(A)p.r(A)p.d(T)p.d(T)}|RNA2{r(U)p.r(U)p.r(C)p.r(A)p.r(G)p.r(G)p.r(A)p.r(U)p.r(A)p.r(U)p.r(C)p.r(C)p.r(A)p.r(A)p.r(A)p.r(C)p.r(A)p.r(A)p.r(A)p.d(T)p.d(A)}$$$RNA1{StrandType:ss}|RNA2{StrandType:as}$	78.9%
RNA1{r(U)p.r(U)p.r(U)p.r(U)p.r(A)p.r(C)p.r(A)p.r(G)p.r(A)p.r(A)p.r(U)p.r(U)p.r(A)p.r(A)p.r(G)p.r(A)p.r(G)p.r(G)p.r(A)p.d(T)p.d(T)}|RNA2{r(U)p.r(C)p.r(C)p.r(U)p.r(C)p.r(U)p.r(U)p.r(A)p.r(A)p.r(U)p.r(U)p.r(C)p.r(U)p.r(G)p.r(U)p.r(A)p.r(A)p.r(A)p.r(A)p.d(T)p.d(T)}$$$RNA1{StrandType:ss}|RNA2{StrandType:as}$	47.6%

The substances below were run against UBE2N (assay: reporter assay of Huesken 2005). Conditions: siRNA.

Substance	normalised inhibition (eCFP-eYFP dual reporter)
RNA1{r(A)p.r(A)p.r(A)p.r(C)p.r(U)p.r(U)p.r(G)p.r(A)p.r(A)p.r(C)p.r(U)p.r(A)p.r(U)p.r(U)p.r(C)p.r(C)p.r(U)p.r(U)p.r(C)p.d(T)p.d(T)}|RNA2{r(G)p.r(A)p.r(A)p.r(G)p.r(G)p.r(A)p.r(A)p.r(U)p.r(A)p.r(G)p.r(U)p.r(U)p.r(C)p.r(A)p.r(A)p.r(G)p.r(U)p.r(U)p.r(U)p.d(A)p.d(A)}$$$RNA1{StrandType:ss}|RNA2{StrandType:as}$	43.6%
RNA1{r(A)p.r(A)p.r(A)p.r(U)p.r(G)p.r(A)p.r(U)p.r(G)p.r(U)p.r(A)p.r(G)p.r(C)p.r(G)p.r(G)p.r(A)p.r(G)p.r(C)p.r(A)p.r(G)p.d(T)p.d(T)}|RNA2{r(C)p.r(U)p.r(G)p.r(C)p.r(U)p.r(C)p.r(C)p.r(G)p.r(C)p.r(U)p.r(A)p.r(C)p.r(A)p.r(U)p.r(C)p.r(A)p.r(U)p.r(U)p.r(U)p.d(G)p.d(C)}$$$RNA1{StrandType:ss}|RNA2{StrandType:as}$	43.2%
